From patent US20250368666A1, “INDAZOLE COMPOUNDS” (TYRA BIOSCIENCES, INC., priority 2022, published 2025)

Experiments:
[1] = tested on: KATO-III cell line (FGFR2 amplification); experiment: Cancer cell line cell viability assay (Cell Titer-Glo), 72 hr; assay type: cell-based; settings: Homo sapiens, KATO III
Outline: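 Cells seeded at 5,000-20,000/well, incubated overnight, then treated with a 9-dose, 4-fold dilution series from 3 μM in triplicate at 37° C, 5% CO2. Viability read by Cell Titer-Glo 2.0 luminescence as percent of DMSO control; IC50 from 4-parameter variable-slope sigmoidal fit.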

[2] = tested on: RT112/84 cell line (FGFR3-fusion); experiment: as above; assay type: cell-based; settings: Homo sapiens, RT112/84, RT112/84 cell line (FGFR3-fusion)
Outline: (§1)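 Intracellular ATP was measured by Cell Titer-Glo 2.0 luminescence after cells were incubated with compound dilutions (top 3 μM, 4-fold, 9 doses). Values were expressed relative to DMSO-treated cells and IC50 was calculated from a variable-slope dose-response curve.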

[3] = tested on: KG-1 cell line (FGFR 1-fusion); experiment: as above; assay type: cell-based; settings: Homo sapiens, KG-1, KG-1 cell line (FGFR1-fusion)
Outline: as §1

[4] = target: T1, FGFR3 (V555M) (Homo sapiens, UniProt P22607, V555M); experiment: Kinase binding assay (kinase-tagged T7 phage, affinity beads, qPCR), Kd; settings: V555M mutant; read-out: FGFR3 (V555M) (Kd nM)
T1 construct: made in house; host or cells: E. coli (BL21-derived), T7 phage
T1 sequence (P22607 23-806 V555M): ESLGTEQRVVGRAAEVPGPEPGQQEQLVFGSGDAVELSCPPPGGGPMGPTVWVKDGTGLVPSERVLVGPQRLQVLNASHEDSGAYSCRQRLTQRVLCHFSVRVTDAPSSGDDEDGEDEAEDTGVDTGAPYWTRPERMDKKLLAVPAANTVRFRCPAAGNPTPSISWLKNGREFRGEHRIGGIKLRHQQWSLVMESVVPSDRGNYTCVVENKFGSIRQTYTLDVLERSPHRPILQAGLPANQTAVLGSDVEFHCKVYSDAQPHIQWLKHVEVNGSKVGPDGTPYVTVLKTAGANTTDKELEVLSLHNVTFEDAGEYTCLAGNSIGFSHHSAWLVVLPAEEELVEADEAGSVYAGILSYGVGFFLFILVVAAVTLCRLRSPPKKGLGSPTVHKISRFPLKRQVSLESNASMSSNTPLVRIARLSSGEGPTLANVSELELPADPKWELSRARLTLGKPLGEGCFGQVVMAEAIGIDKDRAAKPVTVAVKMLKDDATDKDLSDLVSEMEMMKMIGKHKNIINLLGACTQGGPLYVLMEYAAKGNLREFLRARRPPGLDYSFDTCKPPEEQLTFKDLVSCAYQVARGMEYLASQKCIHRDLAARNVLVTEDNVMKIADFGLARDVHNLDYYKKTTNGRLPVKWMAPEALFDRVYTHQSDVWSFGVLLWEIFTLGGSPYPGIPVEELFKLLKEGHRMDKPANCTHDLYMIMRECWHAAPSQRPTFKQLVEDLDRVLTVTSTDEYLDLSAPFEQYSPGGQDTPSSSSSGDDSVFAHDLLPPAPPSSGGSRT
Outline: (§2)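 First, phage lysates carrying tagged kinase are made in E. coli at 32° C. Next, they are combined with blocked biotin-ligand streptavidin beads and compound at 0.9% final DMSO. Finally, eluted kinase is measured by qPCR and Kd is fitted with the Hill equation.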

[5] = target: T2, FGFR2 (Homo sapiens, UniProt P21802); experiment: as above; settings: read-out: FGFR2 (Kd nM)
T2 construct: made in house; host or cells: E. coli (BL21-derived), T7 phage
T2 sequence (P21802 22-821): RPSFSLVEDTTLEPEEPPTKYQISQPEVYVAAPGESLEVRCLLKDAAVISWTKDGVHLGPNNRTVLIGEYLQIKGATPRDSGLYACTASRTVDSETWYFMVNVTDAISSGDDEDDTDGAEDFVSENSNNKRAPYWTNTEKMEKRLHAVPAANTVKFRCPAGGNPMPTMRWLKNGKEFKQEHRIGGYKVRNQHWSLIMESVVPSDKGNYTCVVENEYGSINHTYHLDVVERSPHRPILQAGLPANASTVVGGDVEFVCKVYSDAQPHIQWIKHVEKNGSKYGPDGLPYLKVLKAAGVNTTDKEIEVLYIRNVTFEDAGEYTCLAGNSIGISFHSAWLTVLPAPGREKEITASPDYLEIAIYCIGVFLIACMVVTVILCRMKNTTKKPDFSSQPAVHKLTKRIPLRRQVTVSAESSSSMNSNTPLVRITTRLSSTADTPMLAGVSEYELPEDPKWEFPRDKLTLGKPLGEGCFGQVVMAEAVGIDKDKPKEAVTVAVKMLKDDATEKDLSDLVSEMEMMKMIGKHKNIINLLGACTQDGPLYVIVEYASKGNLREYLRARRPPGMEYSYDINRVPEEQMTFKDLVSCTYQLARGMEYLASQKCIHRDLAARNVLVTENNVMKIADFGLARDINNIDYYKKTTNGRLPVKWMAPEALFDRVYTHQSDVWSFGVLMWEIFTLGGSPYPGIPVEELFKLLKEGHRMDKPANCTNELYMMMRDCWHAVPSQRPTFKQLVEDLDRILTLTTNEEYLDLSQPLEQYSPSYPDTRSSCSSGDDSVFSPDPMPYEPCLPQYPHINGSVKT
Outline: as §2

[6] = target: T3, FGFR4 (Homo sapiens, UniProt P22455); experiment: as above; settings: read-out: FGFR4 (Kd nM)
T3 construct: made in house; host or cells: E. coli (BL21-derived), T7 phage
T3 sequence (P22455 22-802): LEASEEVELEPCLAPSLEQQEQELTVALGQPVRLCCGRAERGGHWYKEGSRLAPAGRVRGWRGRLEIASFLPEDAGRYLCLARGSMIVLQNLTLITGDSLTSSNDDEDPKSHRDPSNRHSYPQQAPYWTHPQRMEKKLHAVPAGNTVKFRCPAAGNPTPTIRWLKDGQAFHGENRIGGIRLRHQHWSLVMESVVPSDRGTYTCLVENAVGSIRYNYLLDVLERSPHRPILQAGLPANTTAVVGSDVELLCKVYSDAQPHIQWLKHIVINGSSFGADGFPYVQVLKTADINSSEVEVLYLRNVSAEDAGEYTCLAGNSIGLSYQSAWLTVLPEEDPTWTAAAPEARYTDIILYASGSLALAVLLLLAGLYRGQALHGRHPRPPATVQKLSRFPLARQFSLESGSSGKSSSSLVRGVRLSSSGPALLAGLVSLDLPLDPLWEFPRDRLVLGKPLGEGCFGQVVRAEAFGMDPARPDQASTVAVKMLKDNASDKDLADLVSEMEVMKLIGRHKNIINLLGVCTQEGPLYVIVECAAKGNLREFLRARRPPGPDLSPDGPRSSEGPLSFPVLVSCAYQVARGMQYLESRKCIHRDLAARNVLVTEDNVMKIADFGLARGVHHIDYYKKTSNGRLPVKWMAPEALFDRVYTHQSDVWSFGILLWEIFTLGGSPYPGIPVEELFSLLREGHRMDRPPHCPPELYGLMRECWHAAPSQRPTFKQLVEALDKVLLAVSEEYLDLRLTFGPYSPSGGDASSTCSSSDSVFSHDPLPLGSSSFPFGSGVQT
Outline: as §2

[7] = target: T4, FGFR3 (Homo sapiens, UniProt P22607); experiment: as above; settings: read-out: FGFR3 (Kd nM)
T4 construct: made in house; host or cells: E. coli (BL21-derived), T7 phage
T4 sequence (P22607 23-806): as the sequence (P22607 23-806 V555M) above, with M533V counted along it
Outline: as §2

[8] = target: T5, FGFR1 (Homo sapiens, UniProt P11362); experiment: as above; settings: read-out: FGFR1 (Kd nM)
T5 construct: made in house; host or cells: E. coli (BL21-derived), T7 phage
T5 sequence (P11362 22-822): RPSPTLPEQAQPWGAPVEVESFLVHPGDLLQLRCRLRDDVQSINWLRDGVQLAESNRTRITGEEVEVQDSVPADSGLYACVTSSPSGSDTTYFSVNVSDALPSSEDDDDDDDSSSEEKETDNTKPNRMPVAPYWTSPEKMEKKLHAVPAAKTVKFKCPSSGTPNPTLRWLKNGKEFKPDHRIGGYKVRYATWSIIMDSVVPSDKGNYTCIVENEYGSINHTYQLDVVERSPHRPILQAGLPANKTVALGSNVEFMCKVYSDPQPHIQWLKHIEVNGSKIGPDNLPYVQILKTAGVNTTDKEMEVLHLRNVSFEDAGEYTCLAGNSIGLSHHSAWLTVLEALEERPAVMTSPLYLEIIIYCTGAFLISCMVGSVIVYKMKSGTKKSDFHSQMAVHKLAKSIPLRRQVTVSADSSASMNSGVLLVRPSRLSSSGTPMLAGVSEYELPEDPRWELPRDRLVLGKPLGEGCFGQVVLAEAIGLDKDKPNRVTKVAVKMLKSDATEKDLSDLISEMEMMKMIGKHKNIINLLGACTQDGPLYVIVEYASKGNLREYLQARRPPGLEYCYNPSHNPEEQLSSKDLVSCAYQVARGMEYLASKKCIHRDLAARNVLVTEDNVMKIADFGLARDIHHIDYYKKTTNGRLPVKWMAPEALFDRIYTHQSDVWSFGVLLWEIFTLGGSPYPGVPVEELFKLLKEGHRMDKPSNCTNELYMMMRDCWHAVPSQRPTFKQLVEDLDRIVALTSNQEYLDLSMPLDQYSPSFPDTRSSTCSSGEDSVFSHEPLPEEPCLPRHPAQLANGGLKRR
Outline: as §2

[9] = tested on: HuH7 cell line (FGF19 amplification); experiment: Cancer cell line cell viability assay (Cell Titer-Glo), 120 hr; assay type: cell-based; settings: Homo sapiens, Huh-7
Outline: as §1

SMILES | IC50 [1] [nM] | IC50 [2] [nM] | IC50 [3] [nM] | Kd [4] [nM] | Kd [5] [nM] | Kd [6] [nM] | Kd [7] [nM] | Kd [8] [nM] | IC50 [9] [nM]
C[C@@H](Oc1ccc2[nH]nc(-c3cnc(N4CC(C)(NC5COC5)C4)c(C#N)c3)c2c1)c1c(Cl)cncc1Cl [Example 4, (R)-5-(5-(1-(3,5-dichloropyridin-4-yl)ethoxy)-1H-indazol-3-yl)-2-(3-methyl-3-(oxetan-3-ylamino)azetidin-1-yl)nicotinonitrile] | 200 to 1000 | 50 to 200 | 200 to 1000 | 1 to 50 | 50 to 300 | 1 to 50 | 1 to 50 | 50 to 300 | 0.1 to 50
C[C@@H](Oc1ccc2[nH]nc(-c3cnc(N4CC(C)(NC5CS(=O)(=O)C5)C4)c(C#N)c3)c2c1)c1c(Cl)cncc1Cl [Example 7, (R)-5-(5-(1-(3,5-dichloropyridin-4-yl)ethoxy)-1H-indazol-3-yl)-2-(3-((1,1-dioxidothietan-3-yl)amino)-3-methylazetidin-1-yl)nicotinonitrile] | 50 to 200 | 0.1 to 50 | 200 to 1000 | 1 to 50 | 50 to 300 | 1 to 50 | 1 to 50 | 50 to 300 | 0.1 to 50
COc1cc2[nH]nc(-c3cnc(N4CC(C)(N(C)C)C4)c(C#N)c3)c2cc1O[C@H](C)c1c(Cl)cncc1Cl [Example 10, 5-[5-[(1R)-1-(3,5-dichloro-4-pyridyl)ethoxy]-6-methoxy-1H-indazol-3-yl]-2-[3-(dimethylamino)-3-methyl-azetidin-1-yl]pyridine-3-carbonitrile] | 50 to 200 | 0.1 to 50 | 50 to 200 | 1 to 50 | 1 to 50 | 1 to 50 | 1 to 50 | 1 to 50 | 0.1 to 50
COc1cc2[nH]nc(-c3cnc(N4CC(C)(N5CCCC5)C4)c(C#N)c3)c2cc1O[C@H](C)c1c(Cl)cncc1Cl [Example 15, 5-[5-[(1R)-1-(3,5-dichloro-4-pyridyl)ethoxy]-6-methoxy-1H-indazol-3-yl]-2-(3-methyl-3-pyrrolidin-1-yl-azetidin-1-yl)pyridine-3-carbonitrile] | 50 to 200 | 0.1 to 50 | 50 to 200 | 1 to 50 | 1 to 50 | 1 to 50 | 1 to 50 | 1 to 50 | 0.1 to 50
C[C@@H](Oc1ccc2[nH]nc(-c3cnc(N4CC(C)(N5CCCC5)C4)c(C#N)c3)c2c1)c1c(Cl)cncc1Cl [Example 17, (R)-5-(5-(1-(3,5-Dichloropyridin-4-yl)ethoxy)-1H-indazol-3-yl)-2-(3-methyl-3-(pyrrolidin-1-yl)azetidin-1-yl)nicotinonitrile] | 200 to 1000 | 50 to 200 | 200 to 1000 | 1 to 50 | 1 to 50 | 1 to 50 | 1 to 50 | 1 to 50 | 0.1 to 50
Cc1ncc(Cl)c([C@@H](C)Oc2ccc3[nH]nc(-c4cnc(N5CC(C)(NC6CCC6)C5)c(C#N)c4)c3c2)c1Cl [Example 19, 2-[3-(cyclobutylamino)-3-methyl-azetidin-1-yl]-5-[5-[(1R)-1-(3,5-dichloro-2-methyl-4-pyridyl)ethoxy]-1H-indazol-3-yl]pyridine-3-carbonitrile] | > 1000 | 200 to 1000 | 200 to 1000 | 1 to 50 | 300 to 1000 | 1 to 50 | 1 to 50 | 50 to 300 | 0.1 to 50
C[C@@H](Oc1ccc2[nH]nc(-c3cnc(N4CC(C)(N[C@H]5CCOC5)C4)c(C#N)c3)c2c1)c1c(Cl)cncc1Cl [Example 20, 5-(5-((R)-1-(3,5-dichloropyridin-4-yl)ethoxy)-1H-indazol-3-yl)-2-(3-methyl-3-(((S)-tetrahydrofuran-3-yl)amino)azetidin-1-yl)nicotinonitrile] | 50 to 200 | 50 to 200 | 200 to 1000 | 1 to 50 | 1 to 50 | 1 to 50 | 1 to 50 | 1 to 50 | 0.1 to 50
C[C@@H](Oc1ccc2[nH]nc(-c3cnc(N4CC(C)(NCCC(F)F)C4)c(C#N)c3)c2c1)c1c(Cl)cncc1Cl [Example 21, (R)-5-(5-(1-(3,5-dichloropyridin-4-yl)ethoxy)-1H-indazol-3-yl)-2-(3-((3,3-difluoropropyl)amino)-3-methylazetidin-1-yl)nicotinonitrile] | 200 to 1000 | 50 to 200 | 200 to 1000 | 1 to 50 | 50 to 300 | 1 to 50 | 1 to 50 | 50 to 300 | 50 to 200
C[C@@H](Oc1ccc2[nH]nc(-c3cnc(N4CC(C)(NCC(F)F)C4)c(C#N)c3)c2c1)c1c(Cl)cncc1Cl [Example 22, (R)-5-(5-(1-(3,5-dichloropyridin-4-yl)ethoxy)-1H-indazol-3-yl)-2-(3-((2,2-difluoroethyl)amino)-3-methylazetidin-1-yl)nicotinonitrile] | 200 to 1000 | 50 to 200 | 200 to 1000 | 1 to 50 | 50 to 300 | 1 to 50 | 1 to 50 | 50 to 300 | 0.1 to 50

Next, values leading:

IC50 [1] [nM] | IC50 [2] [nM] | IC50 [3] [nM] | Kd [4] [nM] | Kd [5] [nM] | Kd [6] [nM] | Kd [7] [nM] | Kd [8] [nM] | IC50 [9] [nM] | SMILES
200 to 1000 | 50 to 200 | 200 to 1000 | 1 to 50 | 1 to 50 | 1 to 50 | 1 to 50 | 1 to 50 | 0.1 to 50 | C[C@@H](Oc1ccc2[nH]nc(-c3cnc(N4CC(C)(CN(C)S(C)(=O)=O)C4)c(C#N)c3)c2c1)c1c(Cl)cncc1Cl [Example 23, (R)-N-((1-(3-cyano-5-(5-(1-(3,5-dichloropyridin-4-yl)ethoxy)-1H-indazol-3-yl)pyridin-2-yl)-3-methylazetidin-3-yl)methyl)-N-methylmethanesulfona-mide]
50 to 200 | 0.1 to 50 | 200 to 1000 | – | 1 to 50 | 1 to 50 | 1 to 50 | 1 to 50 | 0.1 to 50 | COc1cc2[nH]nc(-c3cnc(N4CC(N)(CC=C(C)C)C4)c(C#N)c3)c2cc1O[C@H](C)c1c(Cl)cncc1Cl [Example 363, (R)-2-(3-amino-3-(3-methylbut-2-en-1-yl)azetidin-1-yl)-5-(5-(1-(3,5-dichloropyridin-4-yl)ethoxy)-6-methoxy-1H-indazol-3-yl)nicotinonitrile]
50 to 200 | 50 to 200 | > 1000 | – | 1 to 50 | 1 to 50 | 1 to 50 | 1 to 50 | 0.1 to 50 | COc1cc2[nH]nc(-c3cnc(N4CC(N)(CCS(C)(=O)=O)C4)c(C#N)c3)c2cc1O[C@H](C)c1c(Cl)cncc1Cl [Example 364, (R)-2-(3-amino-3-(2-(methylsulfonyl)ethyl)azetidin-1-yl)-5-(5-(1-(3,5-dichloropyridin-4-yl)ethoxy)-6-methoxy-1H-indazol-3-yl)nicotinonitrile]
50 to 200 | 0.1 to 50 | 0.1 to 50 | – | 1 to 50 | 1 to 50 | 1 to 50 | 1 to 50 | 0.1 to 50 | CCC1(N)CN(c2ncc(-c3n[nH]c4cc(OC)c(O[C@H](C)c5c(Cl)cncc5Cl)cc34)cc2C#N)C1 [Example 365, 2-(3-amino-3-ethyl-azetidin-1-yl)-5-[5-[(1R)-1-(3,5-dichloro-4-pyridyl)ethoxy]-6-methoxy-1H-indazol-3-yl]pyridine-3-carbonitrile]
